Reference: the NIST ThermoML archive (doi:10.1021/je100747y)
± gives the expanded uncertainty stated by the source.

What was measured:
[1] = xn = mol fraction of the nth substance listed; settings: 298.15 K, 101 kPa, Liquid, Vibrating tube method
[2] = refractive index (Na D-line) (dimensionless); xn = mol fraction of the nth substance listed; settings: 298.15 K, 101 kPa, Liquid, Standard Abbe refractometry
[3] = 298.15 K; 101.33 kPa; Liquid
[4] = refractive index (Na D-line) (dimensionless); settings: 298.15 K; 101.33 kPa; Liquid; Standard Abbe refractometry

CC(=O)CC(C)=O [2,4-pentanedione] + ClC(Cl)Cl
mass density ([1]; x2 = 0.0498): 988.5 ± 0.3 kg/m3
mass density ([1]; x2 = 0.0996): 1009.2 ± 0.3 kg/m3
mass density ([1]; x2 = 0.2007): 1052.6 ± 0.3 kg/m3
mass density ([1]; x2 = 0.3002): 1097.2 ± 0.3 kg/m3
mass density ([1]; x2 = 0.4002): 1144.3 ± 0.4 kg/m3
mass density ([1]; x2 = 0.4999): 1193.6 ± 0.4 kg/m3
mass density ([1]; x2 = 0.5997): 1245.4 ± 0.5 kg/m3
mass density ([1]; x2 = 0.7007): 1300.4 ± 0.5 kg/m3
mass density ([1]; x2 = 0.7997): 1356.8 ± 0.6 kg/m3
mass density ([1]; x2 = 0.899): 1415.6 ± 0.6 kg/m3
mass density ([1]; x2 = 0.9494): 1446.3 ± 0.6 kg/m3
refractive index ([2]; x2 = 0.0498): 1.4498 ± 0.0007
refractive index ([2]; x2 = 0.0996): 1.4497 ± 0.0007
refractive index ([2]; x2 = 0.2007): 1.4496 ± 0.0007
refractive index ([2]; x2 = 0.3002): 1.4494 ± 0.0007
refractive index ([2]; x2 = 0.4002): 1.4492 ± 0.0007
refractive index ([2]; x2 = 0.4999): 1.4487 ± 0.0007
refractive index ([2]; x2 = 0.5997): 1.4482 ± 0.0007
refractive index ([2]; x2 = 0.7007): 1.4475 ± 0.0007
refractive index ([2]; x2 = 0.7997): 1.4465 ± 0.0007
refractive index ([2]; x2 = 0.899): 1.445 ± 0.0007
refractive index ([2]; x2 = 0.9494): 1.4442 ± 0.0007

ClC(Cl)Cl [trichloromethane]
mass density [3]: 1478 ± 1.8 kg/m3
refractive index [4]: 1.443 ± 0.0007

CC(=O)CC(C)=O [2,4-pentanedione]
mass density [3]: 971 ± 0.4 kg/m3
refractive index [4]: 1.4509 ± 0.0007
